Structures can show the parent of a compound that is named as a salt.
Legend:
[1] = test system: isolated rabbit thoracic aorta preparations; test: Study on vascular tone: vasorelaxation of noradrenaline-precontracted aortic rings; type: cell-based; conditions: for IC50: Oryctolagus cuniculus, concentration giving 50% reversal of NA (1 μM) contraction, rabbit thoracic aorta rings with functional endothelium, read-out: IC50 (μM) ± sem
Description: The ability of ACE inhibitor nitroderivatives to induce vasorelaxation in comparison to native ACE inhibitors, was tested in vitro in isolated rabbit thoracic aorta preparations (Wanstall J. C. et al., Br. J. Pharmacol., 134:463–472, 2001). Male New Zealand rabbits were anaesthetized with thiopental-Na (50 mg/kg, iv), sacrificed by exsanguinations and then the thorax was opened and the aorta dissected. Single ring preparations (4 mm in length) of thoracic aorta were set up in physiological salt solution (PSS) at 37° C. in small organ chambers (5 ml). The composition of PSS was (mM): NaCl 130, NaHCO3 14.9, KH2PO4 1.2, MgSO4 1.2, HEPES 10, CaCl2, […] (95% O2/5% CO2; pH 7.4). Each ring was mounted under 2 g passive tension in 5 ml organ bath. Isometric tension was recorded with a Grass transducer (Grass FT03) attached to a BIOPAC MP150 System. Preparations were allowed to equilibrate for 1 h, then contracted submaximally with noradrenaline (NA, 1 μM) and, when the contraction was stable, acetylcholine (ACh, 10 μM) was added. A relaxant response to ACh indicated the presence of a functional endothelium. When a stable precontraction was reached, a cumulative concentration-response curve to either of the vasorelaxant agents was obtained in the presence of a functional endothelium. Time intervals between different concentrations were based on the time needed to reach a full response. Moreover, the effect of the soluble guanylyl cyclase inhibitor ODQ (1-H-(1,2,4)-oxadiazol(4,3-a)quinoxalin-1-one) on the dilator responses elicited by the compounds was examined preincubating the aortic rings with ODQ (10 μM) for 20 min. Responses to vasorelaxing agents were measured from the plateau of NA contraction. The IC50 (concentration giving 50% reversal of NA contraction) was interpolated from the plots of relaxant-response vs log molar concentration of tested compound.
IC50 is the concentration which inhibits 50% of the response.

SHR rats = test: Hypotensive properties in SHR rats; type: in vivo, rat; conditions: i.v. bolus injection of equimolar doses, conscious SHR rats
Description: After at least 5 days after surgical catheterization of the arterial and venous femoral, conscious old (>9 months) male SHR rats were injected iv bolus with Enalapril, compound of Ex. 3 (equimolar doses) and vehicle (saline) (0.0335 mL/100 g body weight). Blood pressure and heart rate were recorded before (control period 1 h) and after IV bolus administration for up to 4 h.

[2] = test system: L-NAME-induced hypertension in rats; test: L-NAME-induced hypertension in rats; type: in vivo, rat; conditions: for Systolic blood pressure (mmHg): 2 hours after administration, equimolar doses, basal 140
Description: Male Wistar rats weighing 225–250 g were used. The rats were divided into two groups. Under halothane anesthesia, radiotelemetry probes were inserted into descending aorta to measure systolic blood pressure (SBP). Baseline blood pressure was recovered (103 mmHg). Both groups were then provided with drinking water supplemented with L-NAME (400 mg/L) for 7 days to induce hypertension. After this treatment all the animals have a SBP of about 140 mmHg. The rats were then treated orally each day with enalapril or an equimolar dose of enalapril-nitroderivative (compound Ex. 3). Blood pressure recordings were made 2 hours after drug administration. The study was continued over three days period of drug administration.

[3] = test system: rats with renal mass reduction (RMR); test: Proteinuria and renal disease progression in rats with renal mass reduction (RMR); type: in vivo, rat; conditions: for effect on proteinuria (in words): repeated oral treatment, at 3 months
Description: Sprague-Dawley rats underwent right nephrectomy and ligation of two or tree branches of the main renal artery according to Olson et al. (1982). […] A group of sham operated rats was also included (Sham). Urinary protein excretion measurements were performed before the treatment and every month thereafter. Twenty-four hour urine samples were collected using metabolic cages and proteinuria was determined by the modified Coomassie Blu G dye-binding assay for the proteins with bovine serum albumin as standard.

ACE = target: T1, ACE (Mus musculus, UniProt P09470); test: Plasma ACE activity in CD1 mouse after i.v. dosing (FAPGG spectrophotometric method); type: in vivo; conditions: % vs basal condition
T1 construct: The plasma was stored at −20° C. until the ACE activity measurements; from tissue; host or cells: plasma of CD1 mice (heparinized blood from the vena cava)
T1 sequence (P09470 35-1237 limits assumed): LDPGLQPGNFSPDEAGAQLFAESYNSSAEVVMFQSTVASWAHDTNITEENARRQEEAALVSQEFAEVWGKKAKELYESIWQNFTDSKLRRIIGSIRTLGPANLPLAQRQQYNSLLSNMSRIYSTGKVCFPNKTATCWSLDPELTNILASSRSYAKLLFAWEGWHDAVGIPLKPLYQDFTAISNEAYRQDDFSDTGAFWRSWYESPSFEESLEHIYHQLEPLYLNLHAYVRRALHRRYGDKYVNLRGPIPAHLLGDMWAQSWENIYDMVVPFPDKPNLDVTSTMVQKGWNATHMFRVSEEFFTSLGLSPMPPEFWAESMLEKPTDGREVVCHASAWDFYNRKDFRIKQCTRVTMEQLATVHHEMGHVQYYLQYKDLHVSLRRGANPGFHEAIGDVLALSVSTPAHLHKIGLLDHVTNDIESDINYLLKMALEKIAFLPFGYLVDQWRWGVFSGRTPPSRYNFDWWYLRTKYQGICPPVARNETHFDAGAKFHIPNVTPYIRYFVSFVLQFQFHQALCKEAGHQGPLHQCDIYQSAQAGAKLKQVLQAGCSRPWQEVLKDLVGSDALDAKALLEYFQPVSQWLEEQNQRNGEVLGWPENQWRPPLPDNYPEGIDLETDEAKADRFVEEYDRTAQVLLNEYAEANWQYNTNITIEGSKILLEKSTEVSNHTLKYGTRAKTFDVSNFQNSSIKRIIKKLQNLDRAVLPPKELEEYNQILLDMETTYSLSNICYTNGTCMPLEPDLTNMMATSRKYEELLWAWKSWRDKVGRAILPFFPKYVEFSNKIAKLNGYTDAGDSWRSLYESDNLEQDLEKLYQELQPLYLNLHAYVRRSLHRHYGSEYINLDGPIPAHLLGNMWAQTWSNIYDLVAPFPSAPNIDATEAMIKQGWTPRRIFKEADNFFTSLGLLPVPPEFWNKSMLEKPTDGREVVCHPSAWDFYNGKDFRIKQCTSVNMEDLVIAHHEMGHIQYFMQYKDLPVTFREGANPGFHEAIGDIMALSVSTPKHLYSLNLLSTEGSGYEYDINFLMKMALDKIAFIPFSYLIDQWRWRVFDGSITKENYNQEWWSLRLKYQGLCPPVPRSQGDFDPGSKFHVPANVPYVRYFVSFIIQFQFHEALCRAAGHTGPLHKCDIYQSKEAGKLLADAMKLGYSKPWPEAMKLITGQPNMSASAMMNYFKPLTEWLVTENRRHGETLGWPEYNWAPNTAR
Description: CD1 mouse were treated i.v. with a single dose of 3 mg/Kg of enalapril and with a equimolar doses of enalapril nitroderivatives (compound of Ex. 3; 3.6 mg/Kg) and NO-ENA (3.92 mg/Kg). […] Heparinized blood samples were centrifuged at 1000 g for 20 min at 4° C. The plasma was stored at −20° C. until the ACE activity measurements. The ACE activity was determined by a spectrophotometric method (Sigma) based on the enzymatic reaction catalysed by ACE, where the FAPGG was hydrolysed to FAP. FAPGG hydrolysis produced a decrease in the absorbance at 340 nm, a marker of ACE activity in the sample.
The results, reported in Table 3, are expressed as % of ACE activity vs basal condition.

[4] = NO release (NOx formation) in rat plasma; type: in vitro ADME; conditions: 250 μM, up to 240 min
Description: Rat blood was freshly collected with Na-heparin as anticoagulant from male Sprague Dawley rats weighing about 300–330 g. Blood was immediately centrifuged to obtain plasma. Plasma was incubated for up to 240 min at 37° C. in presence of either compound of Ex. 3 (250 μM) or of NO-ENA (250 μM). At fixed times points samples were withdrawn from the incubation and NOx (nitrites+nitrates), the oxidative products of NO, were determined by GPC (gas phase chemiluminescence).

[5] = 3rd month of daily oral treatment, Compound of Ex. 3 50 mg/kg, enalapril 7.5 mg/kg
[6] = 21 days after renal ablation, before the treatment
[7] = Basal (before renal ablation and treatment)
[8] = 15 min after single i.v. dose equimolar to 3 mg/Kg enalapril
[9] = 30 min after single i.v. dose equimolar to 3 mg/Kg enalapril
[10] = 1 h after single i.v. dose equimolar to 3 mg/Kg enalapril
[11] = 3 hs after single i.v. dose equimolar to 3 mg/Kg enalapril
[12] = 6 hs after single i.v. dose equimolar to 3 mg/Kg enalapril
[13] = 24 hs after single i.v. dose equimolar to 3 mg/Kg enalapril

Structure (SMILES)	IC50 [1]	decrease in blood pressure compared with enalapril (in words) (SHR rats)	Systolic blood pressure (mmHg) ([2]; 1st day of oral treatment)	Systolic blood pressure (mmHg) ([2]; 2nd day of oral treatment)	Systolic blood pressure (mmHg) ([2]; 3rd day of oral treatment)	effects on L-NAME-induced hypertension compared with enalapril (in words) ([2]; oral, equimolar dose)	Proteinuria (mg/day) ± sem [3, 5]	Proteinuria (mg/day) ± sem [3, 6]	Proteinuria (mg/day) ± sem [3, 7]	effect on proteinuria (in words) [3]	ACE Activity (% of activity) (ACE; [8])	ACE Activity (% of activity) (ACE; [9])	ACE Activity (% of activity) (ACE; [10])	ACE Activity (% of activity) (ACE; [11])	ACE Activity (% of activity) (ACE; [12])	ACE Activity (% of activity) (ACE; [13])	NO-release rate compared with NO-ENA (in words) [4]	relaxation of NA-contracted aortic rings (in words) ([1]; cumulative concentration-response curve)
C[C@H](N[C@@H](CCc1ccccc1)C(=O)OCCCO[N+](=O)[O-])C(=O)N1CCC[C@H]1C(=O)O [Compound of Ex. 1, N-[(1S)-1-(3-nitrooxypropoxycarbonyl)-3-phenylpropyl]-L-alanyl-L-proline hydrochloride]	21.9 ± 6.9 µM																	
CCOC(=O)[C@H](CCc1ccccc1)N[C@@H](C)C(=O)N1CCC[C@H]1C(=O)OCCCO[N+](=O)[O-].O=C(O)/C=C\C(=O)O [Compound of Ex. 3, N-[(1S)-1-(Ethoxycarbonyl)-3-phenylpropyl]-L-alanyl-L-proline 3-nitrooxypropyl ester hydrogen maleate]	30.9 ± 8.4 µM	higher decrease in blood pressure than enalapril	120 mmHg	117 mmHg	115 mmHg	superior to those of enalapril	163.9 mg/day	76.5 ± 20.3 mg/day	17.5 ± 1.3 mg/day	reduced proteinuria at 3 months	2.9%	3.7%	4.1%	11.1%	49.2%	83.55%	much slower than the NO-release of NO-ENA	
CCOC(=O)[C@H](CCc1ccccc1)N[C@@H](C)C(=O)N1CCC[C@H]1C(=O)O [Enalapril]	> 100 µM		128 mmHg	125 mmHg	120 mmHg		290.5 ± 43.2 mg/day	72.4 ± 18.3 mg/day	15.7 ± 1.2 mg/day	only a marginal effect	4.8%	5.1%	7.3%	19.6%	50.8%	100%		did not produce relaxation at any of the concentration tested
CCOC(=O)[C@H](CCc1ccccc1)N[C@@H](C)C(=O)N1CCC[C@H]1C(=O)Oc1cccc(CO[N+](=O)[O-])c1.O=C(O)/C=C\C(=O)O [NO-ENA, enalapril 3-(nitrooxymethyl)phenyl ester maleate]											5.4%	4.8%	9.3%	23.6%	55.2%	90.1%		
